Paper PMC6983991, “Toxicity and Anti-promastigote Activity of Benzoxazinoid Analogs Against Leishmania (Viannia) braziliensis and Leishmania (Leishmania) infantum” (Advanced Pharmaceutical Bulletin, 2019)
Converted amounts (≈) assume the structure as drawn. Like-named read-outs stand apart in the source and are kept apart here.

How the values were obtained:
Escherichia coli = test system: Escherichia coli; parameters: method as in PMID 16042337; settings: microdilution broth assays; cited from earlier work
Staphylococcus aureus = test system: Staphylococcus aureus; parameters: method as in PMID 16042337; settings: microdilution broth assays; cited from earlier work
Streptococcus mutans = test system: Streptococcus mutans; parameters: method as in PMID 16042337; settings: microdilution broth assays; cited from earlier work
[1] = test system: rat mast cells stimulated with concanavalin A and sensitized with immunoglobulin E; parameters: method as in PMID 2453615; settings: cited from earlier work
[2] = test system: reverse transcriptase from human immunodeficiency virus(HIV); settings: cited from earlier work
Enterococcus faecalis = test system: Enterococcus faecalis; parameters: method as in PMID 26166773; settings: disc diffusion, 2 mg/disk; cited from earlier work
Klebsiella pneumoniae = test system: Klebsiella pneumoniae; parameters: method as in PMID 26166773; settings: disc diffusion, 2 mg/disk; cited from earlier work
Bacillus subtilis = test system: Bacillus subtilis; parameters: method as in PMID 26166773; settings: disc diffusion, 2 mg/disk; cited from earlier work
[3] = test system: S. aureus methicillin-resistant; parameters: method as in PMID 26166773; settings: disc diffusion, 2 mg/disk; cited from earlier work
Pseudomonas aeruginosa = test system: Pseudomonas aeruginosa; parameters: method as in PMID 26166773; settings: disc diffusion, 2 mg/disk; cited from earlier work
[4] = test system: E. coli extended-spectrum β-lactamases produced; parameters: method as in PMID 26166773; settings: disc diffusion, 2 mg/disk; cited from earlier work
Hamster spleen cells = assay: Cytotoxicity, MTT assay; assay type: cell-based; settings: 48 h exposure
Protocol: (§1) Hamster spleen cells were used to test cytotoxicity. The cells were kindly provided by Dr. Rosy Iara Maciel de Azambuja Ribeiro from of Laboratory of Experimental Pathology/UFSJ. The cells were cultivated in saline solution (NaCl 0.9%; Synth, Brazil) and maintained at 37°C in an incubator with an atmosphere containing 5% CO2 (Thermo Fisher Scientific, Waltham, USA).
(§2) Cytotoxic concentration determinations for 50% of the cells in culture (CC50) were evaluated by using the colorimetric 3-(4,5-dimethylthiazol-2-yl)-2,5-diphenyltetrazolium bromide (MTT) method, following protocols outlined in a previous study.[19] Briefly, spleen cells were exposed for 48h to several concentrations of compounds (3, 6.25, 12.5, 25, 50, 100, 200, 400 and 800 µg/mL) and, afterward, the MTT assay was used to quantify the cell viability as was done using the anti-promastigote assay. Finally, CC50 values were calculated by linear regression analysis of absorbance values obtained previously.[20]
(§3) The selectivity of Bex analogs and antileishmanial agents was determined to evaluate the safety of compounds. Thus, the selectivity index (SI) was calculated through the ratio between the CC50 of compounds against the hamster spleen cells and the geometric mean (GM) of IC50 values calculated for L. (V.) braziliensis and L. (L.) infantum.[21] In the case where CC50 was higher than the highest concentration tested of the compound, to calculate the SI, the value used was 400. The larger SI was indicative of a safer molecule.

[5] = test system: Leishmania (V.) braziliensis (MHOM/BR/75/M2903) promastigotes; assay: Anti-promastigote activity, MTT colorimetric assay; assay type: cell-based
Protocol: (§4) Promastigotes of Leishmania (V.) braziliensis (MHOM/BR/75/M2903) and Leishmania (L.) infantum (MHOM/BR/74/PP75) were grown in a biphasic medium. The solid phase was composed of Nicolle–Novy–MacNeals (NNN) medium with 15% defibrillated rabbit blood. Already in the liquid phase, we employed Roswell Park Memorial Institute (RPMI)-1640 (Sigma-Aldrich, St. Louis, USA) or Liver Infusion Tryptose (LIT) medium with 15% fetal bovine serum (Gibco – Thermo Fisher Scientific, Waltham USA), both supplemented with 1% of penicillin-streptomycin antibiotic solutions (10.000 U/mL of penicillin and 10.000 μg/mL of streptomycin; Gibco – Thermo Fisher Scientific, Waltham, USA). Cultures were maintained in an incubator at 25°C until parasites reached logarithmic phase (4 days). Next, the cultures were centrifuged and the pellet was suspended in RPMI-1640 or LIT for counting promastigotes using a Neubauer hemocytometer under an optical microscope (Axiostar Plus Carl Zeiss, Jena, Germany) at 400x magnification. Subsequently, parasites were diluted in RPMI-1640 or LIT medium at a final concentration of 1 x 10^6parasites/mL for use in antileishmanial assays.
(§5) The 50% inhibitory concentration (IC50) against L. (V.) braziliensis and L. (L.) infantum was evaluated by determination of the parasite viability using the colorimetric 3-(4,5-dimethylthiazol-2-yl)-2,5-diphenyltetrazolium bromide (MTT) method.[19] Initially, 100 μL of the promastigote suspension prepared in RPMI-1640 or LIT medium (1 × 10^6cells/mL) was added in each well of the 96-well microplate. Parasites were then treated with two-fold serial dilutions (from 3.12 to 400 µg/mL) of Bex-derived analogs prepared in 10% dimethyl sulfoxide (DMSO) (Sigma-Aldrich, St. Louis, USA) and the microplates were incubated at 25°C for 48 h. Next, 20 μL of MTT solution at 5 mg/mL (Sigma-Aldrich, St. Louis, USA) was added to the parasite cultures and the plates were covered with laminated paper and incubated at 37°C for 4 h. Finally, the plates were centrifuged at 1500 rpm for 15 min at 4°C (Heraeus-Megafuge 11R Centrifuge - Thermo Fisher Scientific, Waltham USA) and the formazan crystals formed were dissolved by the addition of 200 μL 10% DMSO. After further incubation for 5 min at room temperature, absorbance at 570 nm of samples measured using a microplate reader (Metller Toledo, Brazil). Meglumine antimoniate (Glucantime®Sanofi-aventis, France) and amphotericin B (Eurofarma, Brazil) were included as positive controls, and 10% DMSO solution was used as a solvent control. Samples containing RPM1-1640 or LIT only were used to control the sterility of media and samples containing inoculum and medium, but not compounds, were employed as growth controls.

[6] = test system: Leishmania (L.) infantum (MHOM/BR/74/PP75) promastigotes; assay: Anti-promastigote activity, MTT colorimetric assay; assay type: cell-based
Protocol: as §4, §5

Cytotoxicity, MTT assay = assay type: cell-based; settings: hamster spleen cells, 48 h exposure
Protocol: as §1, §2, §3

[7] = geometric mean of IC50 in LIT and RPMI-1640
[8] = promastigotes, LIT medium, 48 h, 25°C, MTT
[9] = promastigotes, RPMI-1640 medium, 48 h, 25°C, MTT
[10] = geometric mean of IC50 in LIT and RPMI-1640, read-out: GM (geometric mean of IC50 values) L. braziliensis
[11] = promastigotes, LIT medium, 48 h, 25°C, MTT, read-out: IC50 L. braziliensis LIT
[12] = promastigotes, RPMI-1640 medium, 48 h, 25°C, MTT, read-out: IC50 L. braziliensis RPMI-1640
[13] = geometric mean of IC50 in LIT and RPMI-1640, read-out: GM (geometric mean of IC50 values) L. infantum
[14] = promastigotes, LIT medium, 48 h, 25°C, MTT, read-out: IC50 L. infantum LIT
[15] = promastigotes, RPMI-1640 medium, 48 h, 25°C, MTT, read-out: IC50 L. infantum RPMI-1640

Compound | CC50 at 48 h (Cytotoxicity, MTT assay) [µg/mL] | IC50 [5, 10] [µg/mL] | IC50 [5, 11] [µg/mL] | IC50 [5, 12] [µg/mL] | IC50 [6, 13] [µg/mL] | IC50 [6, 14] [µg/mL] | IC50 [6, 15] [µg/mL] | other results
O=C1Nc2ccccc2OC1O (centres unmarked) [HBOA, 2-hydroxy-1,4-benzoxazin-3-one] |  |  |  |  |  |  |  | Concentration exhibiting antibacterial effects (Escherichia coli): 1,000 μg/mL; Concentration exhibiting antibacterial effects (Staphylococcus aureus): 500 µg/mL; Concentration exhibiting antibacterial effects (Streptococcus mutans): 500 µg/mL; Effect on levels of histamine released from rat mast cells [1]: able to reduce levels of histamine
COc1ccc2[nH]c(=O)oc2c1 [MBOA, 6-methoxy-benzoxazolin-2-one] |  |  |  |  |  |  |  | Effect on levels of histamine released from rat mast cells [1]: able to reduce levels of histamine; Inhibition of HIV reverse transcriptase [2]: able to inhibit
O=c1[nH]c2ccccc2o1 [BOA, benzoxazolin-2-one] |  |  |  |  |  |  |  | Concentration exhibiting antibacterial effects (Escherichia coli): 1,000 μg/mL; Concentration exhibiting antibacterial effects (Staphylococcus aureus): 500 µg/mL; Concentration exhibiting antibacterial effects (Streptococcus mutans): 500 µg/mL
COc1ccc2c(c1)OC(O)C(=O)N2O (centres unmarked) [DIMBOA, 2,4-dihydroxy-7-methoxy-1,4-benzoxazin-3-one] |  |  |  |  |  |  |  | Antibacterial activity (Enterococcus faecalis): active; Antibacterial activity (Klebsiella pneumoniae): active; Antibacterial activity (Bacillus subtilis): active; Antibacterial activity [3]: active; Antibacterial activity (Pseudomonas aeruginosa): active; Antibacterial activity [4]: active
Meglumine antimoniate [reference compound] |  |  |  |  |  |  |  | CC50 (Hamster spleen cells): >400 µg/mL; GM (geometric mean of IC50 values) L. braziliensis [5, 7]: 97.5 µg/mL; IC50 L. braziliensis LIT [5, 8]: 97 ± 4.34 µg/mL; IC50 L. braziliensis RPMI-1640 [5, 9]: 98 ± 4.45 µg/mL; GM (geometric mean of IC50 values) L. infantum [6, 7]: 99.47 µg/mL; IC50 L. infantum LIT [6, 8]: 97 ± 3.14 µg/mL; IC50 L. infantum RPMI-1640 [6, 9]: 102 ± 3.54 µg/mL
C[C@@H]1[C@H](O)[C@@H](C)/C=C/C=C/C=C/C=C/C=C/C=C/C=C/[C@H](O[C@@H]2O[C@H](C)[C@@H](O)[C@H](N)[C@@H]2O)C[C@@H]2O[C@](O)(C[C@@H](O)C[C@@H](O)[C@H](O)CC[C@@H](O)C[C@@H](O)CC(=O)O[C@H]1C)C[C@H](O)[C@H]2C(=O)O [ANFO, Amphotericin B, reference compound] | 89.3 ± 2.24 (≈ 96.7 µM) | 33.4 (≈ 36.1 µM) | 33.3 ± 3.66 (≈ 36 µM) | 33.4 ± 3.01 (≈ 36.1 µM) | 41.5 (≈ 45 µM) | 41.6 ± 4.27 (≈ 45.1 µM) | 41.5 ± 0.99 (≈ 44.9 µM) | 
CCCCC1Oc2cccnc2N(O)C1=O (centres unmarked) [Pyr5] |  |  | 142 ± 3.67 (≈ 639 µM) | 154 ± 3.85 (≈ 693 µM) |  | 135 ± 4.13 (≈ 607 µM) | 143 ± 4.25 (≈ 643 µM) | 
CCC1Oc2cccnc2N(O)C1=O (centres unmarked) [Pyr3] |  |  | 141 ± 5.94 (≈ 726 µM) | 152 ± 6.17 (≈ 783 µM) |  | 149 ± 6.35 (≈ 767 µM) | 160 ± 6.62 (≈ 824 µM) | 
CC1Oc2ccccc2N(O)C1=O (centres unmarked) [Bex2] | 274.3 ± 1.87 (≈ 1530 µM) | 106 (≈ 591 µM) | 103 ± 4.36 (≈ 575 µM) | 109 ± 4.44 (≈ 608 µM) | 108 (≈ 605 µM) | 106 ± 5.61 (≈ 592 µM) | 111 ± 5.69 (≈ 620 µM) | 
O=C1C(O)Oc2ccccc2N1O (centres unmarked) [DIBOA, 2,4-dihydroxy-1,4-benzoxazin-3-one] |  |  |  |  |  |  |  | Concentration exhibiting antibacterial effects (Escherichia coli): 1,000 μg/mL; Concentration exhibiting antibacterial effects (Staphylococcus aureus): 500 µg/mL; Concentration exhibiting antibacterial effects (Streptococcus mutans): 500 µg/mL
COc1ccc2c(c1)OC(O)C(=O)N2 (centres unmarked) [HMBOA] |  |  |  |  |  |  |  | Effect on levels of histamine released from rat mast cells [1]: able to reduce levels of histamine
O=C1COc2cccnc2N1O [Pyr1] | > 400 | 111 (≈ 671 µM) | 108 ± 5.91 (≈ 650 µM) | 115 ± 6.04 (≈ 692 µM) | 101 (≈ 608 µM) | 99 ± 5.61 (≈ 596 µM) | 103 ± 5.64 (≈ 620 µM) | 
CC1Oc2cccnc2N(O)C1=O (centres unmarked) [Pyr2] | > 400 | 102 (≈ 569 µM) | 100 ± 5.18 (≈ 555 µM) | 105 ± 5.23 (≈ 583 µM) | 115 (≈ 638 µM) | 112 ± 5.34 (≈ 622 µM) | 118 ± 5.45 (≈ 655 µM) | 
CCC1Oc2ccccc2N(O)C1=O (centres unmarked) [Bex3] | 106 ± 2.26 (≈ 547 µM) | 94.5 (≈ 489 µM) | 92 ± 6.19 (≈ 476 µM) | 97 ± 6.24 (≈ 502 µM) | 91 (≈ 471 µM) | 89 ± 6.43 (≈ 461 µM) | 93 ± 6.48 (≈ 481 µM) | 
O=C1COc2ccccc2N1O [Bex1] |  |  | 212 ± 6.04 (≈ 1280 µM) | 238 ± 6.57 (≈ 1440 µM) |  | 174 ± 3.39 (≈ 1050 µM) | 188 ± 3.58 (≈ 1140 µM) | 
CCCC1Oc2cccnc2N(O)C1=O (centres unmarked) [Pyr4] | 202 ± 2.11 (≈ 969 µM) | 100 (≈ 483 µM) | 98 ± 5.94 (≈ 471 µM) | 103 ± 5.99 (≈ 495 µM) | 93 (≈ 447 µM) | 91 ± 6 (≈ 437 µM) | 95 ± 6.05 (≈ 456 µM) | 
